# Data taken from patent publication US7658937B2, “Anthraquinones and process for the preparation and method of use thereof” (Board of Trustees of Michigan State University, priority 2004, dated 2010).
# Legend:
# [1] = test system: adult female filarial (Brugia malayi) worms; assay: Mortality and inhibition of motility of adult female filarial worms at 5 ppm (Example 2); type: cell-based; conditions: for time to 100% mortality: adult female worms
# Source text: (§1) A collection of 100 adult female Brugia malayi were obtained through an NIH subcontract from Dr. John McCall, University of Georgia in order to test the efficacy of anthraquinones as antifilarial agents. Three worms per well were transferred to 6 well plates containing fresh RPMI 1640 culture medium supplemented with L-glutamine and penicillin/streptomycin. […] Duplicate control groups received 2% DMSO or no DMSO. The medium was removed and replaced with fresh RPMI with or without drug in DMSO every 48 h. The movement and viability of the adult worms were monitored every 24 h till 10 days. The B. malayi worms in control wells were fully motile till the end of 10th day and the worms treated with anthraquinones were dead.
# The anthraquinones A, B, D, E, F, J, Q and R, selected randomly, were assayed against adult female filarial (Brugia malayi) worms for mortality and inhibition of motility. […] Other anthraquinones tested gave 100% mortality between 3-10 days (Table 3)
# [2] = test system: male B. malayi adult worms; assay: Antifilarial activity against male adult worms at 5 ppm (Example 3); type: cell-based, Brugia malayi; conditions: monitored for 20 days
# Description: (§2) Live adult male and female B. malayi were obtained from John McCall, University of Georgia, Athens, Ga. (NIH Subcontract). Adult worms were transferred to 6 well plates (3 worms, male or female per well) containing fresh RPMI 1640 culture medium supplemented with L-glutamine and penicillin/streptomycin. Anthraquinones were dissolved separately in 100% DMSO (4mg/ml) and diluted with RPMI media to obtain a final concentration of 5 ppm. Duplicate control groups received 2.5% DMSO or no DMSO. Every 48 h, the medium from each well was removed and replaced with fresh RPMI with or without drug in DMSO. The movement and mortality of the filarial were monitored every 24 h for 20 days. All B. malayi worms in control wells were fully motile throughout the study and the worms treated with anthraquinones were dead.
# B. malayi Microfilaria = assay: Antifilarial activity against microfilaria at 5 ppm (Example 3); type: cell-based, Brugia malayi
# [3] = test system: female B. malayi adult worms; assay: Antifilarial activity against female adult worms at 5 ppm (Example 3); type: cell-based, Brugia malayi; conditions: monitored for 20 days
# Description: as §2
# B. Malayi adult worms = assay: Dose response of active anthraquinones against adult worms (50 to 3.12 ppm); type: cell-based, Brugia malayi
# Source text: as §1
# Te assay was repeated with anthraquinones B, F, J and R since they killed the worms quickly compared to the other anthraquinones tested.
# [4] = test system: adult female and male B. malayi; assay: Morphology of H & E stained sections of killed adult worms (FIGS. 6-9); type: cell-based, Brugia malayi; conditions: killed by 5 ppm, H & E stain
# Source text: FIG. 6 is a cross-sectional view of H & E stained normal control adult female Brugia malayi. Normal duplicate intrauterine structures contains many well-formed microfilaria larvae that have not yet been released from the uterus. Magnification×400. Calibration mark indicates 100 microns in FIGS. 6-9).
# FIG. 7 is a longitudinal sectional view of normal adult male B. malayi. […] Magnification×40.
# Schistosoma mansoni = conditions: naturally occurring anthraquinone from daylily roots; Cichewicz et al. 2002; cited from earlier work
# [5] = test system: human filarial parasite, B.malayi; assay: Activity of daylily anthraquinone against human filarial parasite; parameters: species or system Brugia malayi
Compound,100% Mortality of B. Malayi ([1]; adult worms) [days],100% Mortality of Microfilaria (Days)* (B. malayi Microfilaria),100% Mortality of female B. malayi [3] [days],further results
"CCCSc1ccc2nc(NC(=O)OC)[nH]c2c1 [Albendazole, reference compound]",16,No Mortality,16,100% Mortality of male B. malayi [2]: 9 days
"O=C1c2ccccc2C(=O)c2c1ccc(O)c2O [Anthraquinone A, 1,2-Dihydroxy anthraquinone]",11,3 days,5,
"Cc1cc2c(c(O)c1O)C(=O)c1ccccc1C2=O [Anthraquinone B, 1,2-Dihydroxy-3-methyl anthraquinone]",5,3 days,5,"100% Mortality of B. Malayi (B. Malayi adult worms; 3.125 ppm): 6 days; 100% Mortality of B. Malayi (B. Malayi adult worms; 6.25 ppm): 5 days; 100% Mortality of B. Malayi (B. Malayi adult worms; 12.5 ppm): 4 days; 100% Mortality of B. Malayi (B. Malayi adult worms; 25 ppm): 3 days; 100% Mortality of B. Malayi (B. Malayi adult worms; 50 ppm): 1 days; morphology of adult female B. malayi, cross-section [4]: disruption of the stable cuticle and hypodermal regions, along with disorganization of the intrauterine microfilariae; morphology of adult male B. malayi, longitudinal section [4]: marked loss of cellularity in hypodermal and deeper structures; time to 100% mortality [1]: 24 h; 100% Mortality of male B. malayi [2]: 6 days"
"Cc1c(O)c(O)cc2c1C(=O)c1ccccc1C2=O [Anthraquinone C, 1-Methyl-2,3-dihydroxy anthraquinone]",7,3 days,7,
"O=C1c2ccccc2C(=O)c2c(O)cc(O)cc21 [Anthraquinone D, 1,3-Dihydroxy anthraquinone]",,No Mortality,,100% Mortality of B. malayi (Days) ([1]; adult worms): No activity; 100% Mortality of female B. malayi (Days) [3]: No Mortality
"O=C1c2ccccc2C(=O)c2c(O)ccc(O)c21 [Anthraquinone E, 1,4-Dihydroxy anthraquinone]",10,No Mortality,10,
"O=C1c2ccccc2C(=O)c2c1cc(O)c(O)c2O [Anthraquinone F, 1,2,3-Trihydroxy anthraquinone]",5,3 days,5,100% Mortality of B. Malayi (B. Malayi adult worms; 3.125 ppm): 5 days; 100% Mortality of B. Malayi (B. Malayi adult worms; 6.25 ppm): 5 days; 100% Mortality of B. Malayi (B. Malayi adult worms; 12.5 ppm): 4 days; 100% Mortality of B. Malayi (B. Malayi adult worms; 25 ppm): 4 days; 100% Mortality of B. Malayi (B. Malayi adult worms; 50 ppm): 2 days
"O=C1c2cc(O)c(O)cc2C(=O)c2c(O)cccc21 [Anthraquinone G, 2,3,5-Trihydroxy anthraquinone]",5,3 days,5,
"O=C1c2ccc(O)c(O)c2C(=O)c2cccc(O)c21 [Anthraquinone H, 1,2,5-Trihydroxy anthraquinone]",9,3 days,9,
"O=C1c2cccc(O)c2C(=O)c2c1ccc(O)c2O [Anthraquinone I, 1,2,8-Trihydroxy anthraquinone]",14,3 days,14,
"Cc1cc2c(c(O)c1O)C(=O)c1c(O)cccc1C2=O [Anthraquinone J, 1,2,8-Trihydroxy-3-methyl anthraquinone]",5,3 days,5,100% Mortality of B. malayi (Days) (B. Malayi adult worms; 3.125 ppm): No Mortality; 100% Mortality of B. Malayi (B. Malayi adult worms; 6.25 ppm): 5 days; 100% Mortality of B. Malayi (B. Malayi adult worms; 12.5 ppm): 4 days; 100% Mortality of B. Malayi (B. Malayi adult worms; 25 ppm): 3 days; 100% Mortality of B. Malayi (B. Malayi adult worms; 50 ppm): 2 days; activity against Schistosoma mansoni (Schistosoma mansoni): significant activity; time to 100% mortality [1]: 48 h; 100% Mortality of male B. malayi [2]: 5 days; activity against human filarial parasite B.malayi [5]: active
"Cc1c(O)c(O)cc2c1C(=O)c1c(O)cccc1C2=O [Anthraquinone K, 1-Methyl-2,3,8-trihydroxy anthraquinone]",3,1 days,3,100% Mortality of male B. malayi [2]: 5 days
"O=C1c2cc(O)cc(O)c2C(=O)c2cccc(O)c21 [Anthraquinone L, 1,3,5-Trihydroxy anthraquinone]",7,3 days,7,
"O=C1c2cccc(O)c2C(=O)c2c(O)ccc(O)c21 [Anthraquinone M, 1,4,8-Trihydroxy anthraquinone]",9,5 days,9,
"O=C1c2cc(O)c(O)c(O)c2C(=O)c2cccc(O)c21 [Anthraquinone N, 1,2,3,-5-Tetrahydroxy anthraquinone]",5,3 days,5,100% Mortality of male B. malayi [2]: 6 days
"COc1c(C)cc2c(c1O)C(=O)c1ccccc1C2=O [Anthraquinone O, 1-Hydroxy-2-methoxy-3-methyl anthraquinone]",,No Mortality,,100% Mortality of B. malayi (Days) ([1]; adult worms): No activity; 100% Mortality of female B. malayi (Days) [3]: No Mortality
"COc1c(C)cc2c(c1OC)C(=O)c1ccccc1C2=O [Anthraquinone P, 1,2-Dimethoxy-3-methyl anthraquinone]",11,No Morality,11,
"COc1c(C)cc2c(c1O)C(=O)c1c(O)cccc1C2=O [Anthraquinone Q, 1,8-Dihydroxy-2-methoxy-3-methyl anthraquinone]",,No Mortality,,100% Mortality of B. malayi (Days) ([1]; adult worms): No activity; 100% Mortality of female B. malayi (Days) [3]: No Mortality
"COc1cccc2c1C(=O)c1c(cc(C)c(OC)c1O)C2=O [Anthraquinone R, 1-Hydroxy-2,8-dimethoxy-3-methyl anthraquinone]",7,No Mortality,7,100% Mortality of B. malayi (Days) (B. Malayi adult worms; 3.125 ppm): No Mortality; 100% Mortality of B. Malayi (B. Malayi adult worms; 6.25 ppm): 8 days; 100% Mortality of B. Malayi (B. Malayi adult worms; 12.5 ppm): 4 days; 100% Mortality of B. Malayi (B. Malayi adult worms; 25 ppm): 2 days; 100% Mortality of B. Malayi (B. Malayi adult worms; 50 ppm): 1 days; time to 100% mortality [1]: 24 h
"COc1cc2c(c(C)c1OC)C(=O)c1c(O)cccc1C2=O [Anthraquinone S, 1-Methyl-2,3-dimethoxy-8-hydroxy anthraquinone]",9,No Mortality,9,"activity ([1]; adult worms, at 9 days): 50%"
